Source: US8134015B2, “Compound inhibiting in vivo phosphorous transport and medicine containing the same” (Kyowa Hakko Kirin Co., Ltd., priority 2003, dated 2012)

How the values were obtained:
rat NaPi-2b = target: T1, rat NaPi-2b (Rattus norvegicus, UniProt Q9JJ09); experiment: Sodium-dependent phosphate uptake of Xenopus oocytes which expressed NaPi-2b (32P); type: cell-based; conditions: for IC50: Xenopus oocytes expressing rat NaPi-2b, 32P radioactive phosphorus, read-out: IC50 (phosphate uptake inhibitory activity); for inhibition at 300 µM: phosphate uptake, oocytes expressing rat NaPi-2b, determined from inhibition curve
T1 construct: expressed in transfected cells; host or cells: Xenopus oocytes injected with cRNA
T1 sequence (Q9JJ09 1-695): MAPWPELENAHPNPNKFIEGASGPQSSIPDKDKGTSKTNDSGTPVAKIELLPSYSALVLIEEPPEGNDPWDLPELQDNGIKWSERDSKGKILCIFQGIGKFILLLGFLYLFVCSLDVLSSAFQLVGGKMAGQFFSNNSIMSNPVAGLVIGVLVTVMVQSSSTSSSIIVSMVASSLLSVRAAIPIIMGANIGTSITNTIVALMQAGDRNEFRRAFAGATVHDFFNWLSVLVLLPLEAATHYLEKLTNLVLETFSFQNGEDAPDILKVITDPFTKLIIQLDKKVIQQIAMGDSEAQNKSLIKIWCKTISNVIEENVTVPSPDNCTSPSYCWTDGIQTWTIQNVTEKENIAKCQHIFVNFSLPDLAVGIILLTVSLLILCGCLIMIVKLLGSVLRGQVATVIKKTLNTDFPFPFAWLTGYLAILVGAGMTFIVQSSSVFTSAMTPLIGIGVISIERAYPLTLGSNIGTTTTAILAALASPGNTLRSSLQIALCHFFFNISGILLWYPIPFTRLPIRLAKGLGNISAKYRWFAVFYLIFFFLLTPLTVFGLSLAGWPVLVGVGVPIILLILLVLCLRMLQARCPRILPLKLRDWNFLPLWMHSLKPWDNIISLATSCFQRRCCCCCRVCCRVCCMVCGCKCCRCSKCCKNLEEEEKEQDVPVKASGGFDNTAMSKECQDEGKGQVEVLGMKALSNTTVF
Summary of the method: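 Oocytes injected with rat NaPi-2b cRNA, cultured 2 d, then 32P uptake measured with compound. Values: % inhibition at 300 and 100 μM, both from one inhibition curve.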

human NaPi-2a = target: T2, human NaPi-2a (Homo sapiens, UniProt Q06495); experiment: Sodium-dependent phosphate uptake of Xenopus oocytes which expressed NaPi-2a (32P); type: cell-based; conditions: phosphate uptake, Xenopus oocytes expressing human NaPi-2a; five concentration levels
T2 construct: expressed in transfected cells
T2 sequence (Q06495 1-639): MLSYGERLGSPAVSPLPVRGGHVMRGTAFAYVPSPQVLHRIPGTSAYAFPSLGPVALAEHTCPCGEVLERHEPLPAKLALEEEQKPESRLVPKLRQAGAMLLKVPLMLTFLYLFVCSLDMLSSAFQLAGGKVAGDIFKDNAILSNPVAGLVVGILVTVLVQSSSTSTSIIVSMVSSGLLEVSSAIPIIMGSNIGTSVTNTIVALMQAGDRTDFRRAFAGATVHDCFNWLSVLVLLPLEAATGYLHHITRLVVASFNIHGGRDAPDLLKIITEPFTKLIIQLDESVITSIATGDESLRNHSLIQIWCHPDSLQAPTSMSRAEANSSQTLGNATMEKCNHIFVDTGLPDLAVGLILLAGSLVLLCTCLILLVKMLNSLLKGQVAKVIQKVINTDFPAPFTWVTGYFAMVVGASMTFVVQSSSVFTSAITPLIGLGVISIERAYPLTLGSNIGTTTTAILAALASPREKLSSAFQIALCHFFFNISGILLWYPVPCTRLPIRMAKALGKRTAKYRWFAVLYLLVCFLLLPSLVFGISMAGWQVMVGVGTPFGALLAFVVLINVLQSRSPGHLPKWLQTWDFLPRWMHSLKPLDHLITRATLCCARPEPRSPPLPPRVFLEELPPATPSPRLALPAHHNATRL
Excerpt: Experiment of Sodium-Dependent Phosphate Uptake of Xenopus oocytes which Expressed NaPi-2a
In the test, a group with the addition of choline chloride (Choline Cl) was used as a negative control for nonspecific uptake, and PFA (phosphonoformic acid) was used as a positive control for phosphate transport inhibition.

IC50 (rat NaPi-2b) [nM] | IC50 (human NaPi-2a) [nM] | inhibition at 300 µM (rat NaPi-2b) [%] | Compound
740 | 1940 |  | Cc1ccc(/C=N/NC(=O)c2cc(N3CCCCC3)ccc2NC(=O)c2cccc(CN3CCN(CCO)CC3)c2)cc1C [Compound 864, N-[2-(3,4-Dimethyl-benzylidene-hydrazinocarbonyl)-4-piperidin-1-yl-phenyl]-3-[4-(2-hydroxy-ethyl)-piperazin-1-ylmethyl]-benzamide]
< 3000 | < 3000 |  | Cc1ccc(/C=N/NC(=O)c2c(NC(=O)c3cccc(CN(CC(C)O)CC(C)O)c3)sc(C)c2C)cc1 (stereo not drawn) [Compound 845, 3-{[Bis-(2-hydroxy-propyl)-amino]-methyl}-N-[4,5-dimethyl-3-(4-methyl-benzylidene-hydrazinocarbonyl)-thiophen-2-yl]-benzamide]
390 | 1600 |  | CCN(CC)CCN(C)Cc1cccc(C(=O)Nc2ccc(N3CCCCC3)cc2C(=O)N/N=C/c2ccc(C)cc2)c1 [Compound 859, 3-{[(2-Diethylamino-ethyl)-methyl-amino]-methyl}-N-[2-(4-methyl-benzylidene-hydrazinocarbonyl)-4-piperidin-1-yl-phenyl]-benzamide]
1920 | 8520 |  | CC(O)CN(Cc1cccc(C(=O)Nc2sc3ccccc3c2C(=O)N/N=C/c2cccc(F)c2)c1)CC(C)O (stereo not drawn) [Compound 795, 3-{[Bis-(2-hydroxy-propyl)-amino]-methyl}-N-[3-(3-fluoro-benzylidene-hydrazinocarbonyl)-benzo[b]thiophen-2-yl]-benzamide]
< 3000 | < 3000 |  | O=C(Nc1ccc(Br)cc1C(=O)N/N=C/c1ccc(Cl)c(C(F)(F)F)c1)c1ccc(CSc2ccncc2)cc1 [Compound 260, N-[4-Bromo-2-(4-chloro-3-trifluoromethyl-benzylidene-hydrazinocarbonyl)-phenyl]-4-(pyridin-4-ylsulfanylmethyl)-benzamide]
390 | 2250 |  | COc1ccc(NC(=O)c2cccc(CSCC(O)CO)c2)c(C(=O)N/N=C/c2ccc(Cl)c(C(F)(F)F)c2)c1 (stereo not drawn) [Compound 1020, N-[2-(4-Chloro-3-trifluoromethyl-benzylidene-hydrazinocarbonyl)-4-methoxy-phenyl]-3-(2,3-dihydroxy-propylsulfanyl-methyl)-benzamide]
1710 | 1690 |  | COc1ccc(/C=N/NC(=O)c2cc(N3CCCCC3)ccc2NC(=O)c2cccc(CSCC(O)CO)c2)cc1 (stereo not drawn) [Compound 904, 3-(2,3-Dihydroxy-propylsulfanylmethyl)-N-[2-(4-methoxy-benzylidene-hydrazinocarbonyl)-4-piperidin-1-yl-phenyl]-benzamide]
11900 | 9510 |  | COc1ccc(/C=N/NC(=O)c2c(C)csc2NC(=O)c2cccc(CN(CC(C)O)CC(C)O)c2)cc1 (stereo not drawn) [Compound 592, 3-{[Bis-(2-hydroxy-propyl)-amino]-methyl}-N-[3-(4-methoxy-benzylidene-hydrazinocarbonyl)-4-methyl-thiophen-2-yl]-benzamide]
950 | 35900 |  | O=C(Nc1ccc(N2CCCCC2)cc1C(=O)N/N=C/c1ccc(Cl)c(C(F)(F)F)c1)c1cccc(CSCCO)c1 [Compound 884, N-[2-(4-Chloro-3-trifluoromethyl-benzylidene-hydrazinocarbonyl)-4-piperidin-1-yl-phenyl]-3-(2-hydroxy-ethylsulfanylmethyl)-benzamide]
770 | 10200 |  | Cc1csc(NC(=O)c2cccc(CN3CCC4(CC3)OCCO4)c2)c1C(=O)N/N=C/c1ccc(Cl)c(C(F)(F)F)c1 [Compound 836, N-[3-(4-Chloro-3-trifluoromethyl-benzylidene-hydrazinocarbonyl)-4-methyl-thiophen-2-yl]-3-(1,4-dioxa-8-aza-spiro[4,5]dec-8-ylmethyl]-benzamide]
36400 |  |  | CN(CCCN(C)Cc1cccc(C(=O)Nc2ccc(Cl)cc2C(=O)N/N=C/c2cccc(F)c2)c1)Cc1cccc(C(=O)Nc2ccc(Cl)cc2C(=O)N/N=C/c2cccc(F)c2)c1 [Compound 685, N1-[4-Chloro-2-({2-[(E)-1-(3-fluorophenyl)methylidene]hydrazino}carbonyl}phenyl}-3-{[{3-[(3-{[4-chloro-2-({2-[(E)-1-(3-fluorophenyl)methylidene]hydrazino}carbonyl}-anilino}carbonyl}benzyl}(methyl)amino)propyl)(methyl)amino]methyl]-benzamide]
510 |  |  | COc1ccc(/C=N/NC(=O)c2cc(Br)ccc2NC(=O)c2ccc(OC)c(OC)c2)cc1Br [Compound 97, N-[4-Bromo-2-(3-bromo-4-methoxy-benzylidene-hydrazinocarbonyl)-phenyl]-3,4-dimethoxy-benzamide]
3930 |  |  | COc1ccc(C(=O)Nc2ccc(Cl)cc2C(=O)N/N=C/c2cccc(O)c2)cc1OC [Compound 69, N-[4-Chloro-2-(3-hydroxy-benzylidene-hydrazinocarbonyl)-phenyl]-3,4-dimethoxy-benzamide]
 |  | 85.7 | COc1ccc(C(=O)Nc2ccc(Br)cc2C(=O)NNCc2ccc(C)c(C)c2)cc1OC [Compound 548, N-{4-Bromo-2-[N′-(3,4-dimethyl-benzyl)-hydrazinocarbonyl]-phenyl}-3,4-dimethoxy-benzamide]
< 3000 |  |  | CCN(CC)CCNCc1cccc(C(=O)Nc2scc(C)c2C(=O)N/N=C/c2ccc(C)cc2)c1 [Compound 582, 3-[(2-Diethylamino-ethylamino)-methyl]-N-[4-methyl-3-(4-methyl-benzylidene-hydrazinocarbonyl)-thiophen-2-yl]-benzamide]
4440 |  |  | Cc1ccc(/C=N/NC(=O)c2c(C)csc2NC(=O)c2cccc(CN3CCN(c4ncccn4)CC3)c2)cc1C [Compound 826, N-[3-(3,4-Dimethyl-benzylidene-hydrazinocarbonyl)-4-methyl-thiophen-2-yl]-3-(4-pyrimidin-2-yl-piperazin-1-ylmethyl)-benzamide]
 |  | 69.9 | Cc1ccc(CNNC(=O)c2cc(Cl)ccc2NC(=O)c2cccc(CSc3ccncc3)c2)cc1C [Compound 366, N-{4-Chloro-2-[N′-(3,4-dimethyl-benzyl)-hydrazinocarbonyl]-phenyl}-3-(pyridin-4-ylsulfanylmethyl)-benzamide]
520 |  |  | O=C(Nc1ccc(Cl)cc1C(=O)N/N=C/c1ccc(Cl)c(C(F)(F)F)c1)c1cccc(CSc2nc[nH]n2)c1 [Compound 393, N-[4-Chloro-2-(4-chloro-3-trifluoromethyl-benzylidene-hydrazinocarbonyl)-phenyl]-3-(1H-[1,2,4]triazol-3-ylsulfanylmethyl)-benzamide]
8360 |  |  | CCN(CCO)Cc1ccc(C(=O)Nc2ccc(Cl)cc2C(=O)N/N=C/c2ccc(C)c(C)c2)cc1 [Compound 436, N-[4-Chloro-2-(3,4-dimethyl-benzylidene-hydrazinocarbonyl)-phenyl]-4-{[ethyl-(2-hydroxy-ethyl)-amino]-methyl}-benzamide]
9080 |  |  | CC(O)CN(Cc1cccc(C(=O)Nc2ccc(OCC(O)CN3CCCCC3)cc2C(=O)N/N=C/c2ccc(Cl)c(C(F)(F)F)c2)c1)CC(C)O (stereo not drawn) [Compound 950, 3-{[Bis-(2-hydroxy-propyl)-amino]-methyl}-N-[2-(4-chloro-3-trifluoromethyl-benzylidene-hydrazinocarbonyl)-4-(2-hydroxy-3-piperidin-1-yl-propoxy)-phenyl]-benzamide]
